Experimental data as given in article PMC2748117 (Journal of medicinal chemistry, 2008).

Tests used:
[1] = test system: CCRF-CEM leukemia cell; details: supraphysiologic folate; protected by hypoxanthine, not thymidine; ref [22], [23]; cited from earlier work
[2] = test system: KB cells; assay: Growth inhibition of KB tumor cells, with folate/nucleoside/AICA protection; format: cell-based, human
[3] = test system: human folylpolyglutamate synthetase; details: ref [23]; cited from earlier work
[4] = test system: human TS; details: ref [22], [23]; cited from earlier work
[5] = test system: KB cells; assay: Colony formation and reversibility assay with KB cells; details: 0.1 to 100 nM drug, 10 days
[6] = test system: human DHFR; details: ref [22], [23]; cited from earlier work
[7] = test system: human RFC; assay: Inhibition of RFC-mediated [3H]MTX uptake in PC43-10 cells; format: cell-based; details: unlabeled compound 10 µM, 0.5 µM [3H]MTX, 2 min, 37°C
[8] = test system: KB cells; assay: Apoptosis assay, Annexin V-FITC flow cytometry; format: cell-based, human; details: 1 µM, 24 h, Annexin V positive cells

Row | Compound | Inhibition of CCRF-CEM leukemia cell growth [1] | Effect of thymidine on growth inhibitory activity toward KB cells ([2]; 10 µM thymidine) | Effect of adenosine on growth inhibition of KB cells ([2]; 60 µM adenosine) | Protection by AICA from growth inhibitory effects in KB cells ([2]; 192 µM AICA) | Substrate activity for polyglutamylation [3] | Inhibition of purified human TS [4] | Inhibition of colony formation, continuous exposure [5] | Inhibition of purified human DHFR [6] | Inhibition of [3H]MTX uptake [7] [%] | Apoptosis level relative to the antifolate drugs [8] [factor] | Increase of IC50 between 2 nM and 20 nM LCV ([2]; KB cells, folate-free media, 20 nM versus 2 nM leucovorin) | Increase of IC50 at 40 nM LCV ([2]; KB cells, folate-free media, 40 nM versus 2 nM leucovorin) [fold]
1 | Nc1nc2[nH]c(CCCc3ccc(C(=O)N[C@@H](CCC(=O)O)C(=O)O)cc3)cc2c(=O)[nH]1 [Compound 2] | modest inhibitors | no effect | completely reversed | completely protected | excellent substrates | poor inhibitors | more potent inhibitors than either compound 4 or MTX | poor inhibitors | – | – | – | –
2 | Nc1nc(=O)c2nc(CNc3ccc(C(=O)N[C@@H](CCC(=O)O)C(=O)O)cc3)cnc2[nH]1 [folic acid] | – | – | – | – | – | – | – | – | < 20 | – | – | –
3 | COc1cccc2c1C(=O)c1c(O)c3c(c(O)c1C2=O)C[C@@](O)(C(C)=O)C[C@@H]3O[C@H]1C[C@H](N)[C@H](O)[C@H](C)O1 [daunorubicin] | – | – | – | – | – | – | – | – | – | 4 | – | –
4 | Nc1nc2[nH]c(CCCCc3ccc(C(=O)N[C@@H](CCC(=O)O)C(=O)O)cc3)cc2c(=O)[nH]1 [Compound 3, N-{4-[4-(2-Amino-4-oxo-4,7-dihydro-3H-pyrrolo[2,3-d]pyrimidin-6-yl)butyl]benzoyl}-L-glutamic Acid] | modest inhibitors | – | – | – | excellent substrates | poor inhibitors | more potent inhibitors than either compound 4 or MTX | poor inhibitors | – | – | approximately 3 fold | ~6
